Results on 15 compounds are retold here after patent US12595267B2, “Preparation method for amide compound and application thereof in field of medicine” (Shanghai Synergy Pharmaceutical Sciences Co., Ltd., priority 2019, dated 2026).

Where two headings read alike, the source gives them in different places.

In one data set the target is T1, Mutant EZH2 (Y641F) (Homo sapiens, UniProt Q15910, Y641F).
T1 construct: purchased BPS 51004
The data set is described as follows: AlphaLISA assay on mutant PRC2 complex, EZH2 Y641F. Type of data set: biochemical.

The next data set relates to WSU-DLCL2 cells. As to the kind of experiment: Calcein AM proliferation assay, WSU-DLCL2 cells. Type of data set: cell-based, human. The conditions noted are these: Homo sapiens, read-out: WSU-DLCL2 proliferation IC50.
The next data set relates to Pfeiffer cells. As to the kind of experiment: Calcein AM proliferation assay, Pfeiffer cells. In kind it is cell-based, human. The following applies: Homo sapiens, Pfeiffer, read-out: Pfeiffer proliferation IC50.
The test system of the next data set is Karpas 422 cells. As to the kind of experiment: Calcein AM proliferation assay, Karpas 422 cells. In kind it is cell-based, human. The following applies: Homo sapiens, read-out: Karpas422 proliferation IC50.
Data set [1] in a line: Pharmacokinetics experiment in rats. In kind it is in vivo. The conditions noted are these: rat, plasma, male SD rats; for bioavailability: oral 20 mg/kg vs intravenous 4 mg/kg, read-out: Bioavailability (F %); for AUC: read-out: Area under the curve (AUC); for half-life: read-out: Half life (T1/2) (converted); for Cmax: read-out: Blood drug level (Cmax). The method, then:
Male SD rats weighing 200-300 g and 8 weeks old were used as experimental animals. […] The pharmacokinetic behavior of the compound of the present invention in rats was studied, and the pharmacokinetic characteristics thereof were evaluated.
A certain amount of the compound was weighed, dissolved in 0.10% tween for vortex and ultrasound, and then 0.5% sodium carboxymethyl cellulose (CMC-Na) solution was added to prepare a uniform solution.
The above-mentioned compounds were applied intravenously and orally to rats at a dose of 4 mg/kg and a dose of 20 mg/kg, respectively. At 0.083 h, 0.25 h, 0.5 h, 1.0 h, 2.0 h, 4.0 h, 6.0 h, 8.0 h, 12.0 h, and 24.0 h after application, 0.2 mL of blood was collected from the orbit, and placed in an anticoagulant tube, which was centrifuged at 6000 rpm for 10 minutes at 4° C. The plasma was separated and stored at −80° C.

In a further data set the target is wild-type EZH2 (Homo sapiens, UniProt Q15910). As to the kind of experiment: Radiometric assay of activity on wild-type PRC2 EZH2.
For the next data set, the target named is T2, Mutant EZH2 (Y641N) (Homo sapiens, UniProt Q15910, Y641N).
T2 construct: purchased BPS 51004
The data set is described as follows: AlphaLISA assay on mutant PRC2 complex, EZH2 Y641N. In kind it is biochemical.

Where [2] appears, read: WSUDLCL2, day 14 data, Calcein AM staining.
[3] abbreviates: day 14 data, Calcein AM staining.
Setting [4] is: KARPAS-422, day 14 data, Calcein AM staining.

T1 sequence (Q15910 whole entry Y641F): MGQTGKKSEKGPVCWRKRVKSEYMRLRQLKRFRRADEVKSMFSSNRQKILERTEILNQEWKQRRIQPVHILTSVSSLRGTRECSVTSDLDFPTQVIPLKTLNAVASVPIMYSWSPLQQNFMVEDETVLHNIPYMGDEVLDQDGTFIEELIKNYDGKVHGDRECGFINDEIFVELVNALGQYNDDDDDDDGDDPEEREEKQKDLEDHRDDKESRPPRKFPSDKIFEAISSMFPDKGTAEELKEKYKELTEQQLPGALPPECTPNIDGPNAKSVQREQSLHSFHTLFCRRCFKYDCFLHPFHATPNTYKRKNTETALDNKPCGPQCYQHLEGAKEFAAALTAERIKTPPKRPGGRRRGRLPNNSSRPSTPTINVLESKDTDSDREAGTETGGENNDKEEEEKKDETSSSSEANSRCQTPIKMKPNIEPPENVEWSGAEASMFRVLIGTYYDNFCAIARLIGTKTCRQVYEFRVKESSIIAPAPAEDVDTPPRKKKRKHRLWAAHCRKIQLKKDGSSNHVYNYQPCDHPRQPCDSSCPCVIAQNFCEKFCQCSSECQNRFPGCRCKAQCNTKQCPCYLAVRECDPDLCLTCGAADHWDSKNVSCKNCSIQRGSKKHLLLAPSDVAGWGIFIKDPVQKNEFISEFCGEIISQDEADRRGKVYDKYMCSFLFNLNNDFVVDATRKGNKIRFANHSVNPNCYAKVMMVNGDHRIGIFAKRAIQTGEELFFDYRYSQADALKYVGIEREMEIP
T1 sequence (O75530 whole entry partner): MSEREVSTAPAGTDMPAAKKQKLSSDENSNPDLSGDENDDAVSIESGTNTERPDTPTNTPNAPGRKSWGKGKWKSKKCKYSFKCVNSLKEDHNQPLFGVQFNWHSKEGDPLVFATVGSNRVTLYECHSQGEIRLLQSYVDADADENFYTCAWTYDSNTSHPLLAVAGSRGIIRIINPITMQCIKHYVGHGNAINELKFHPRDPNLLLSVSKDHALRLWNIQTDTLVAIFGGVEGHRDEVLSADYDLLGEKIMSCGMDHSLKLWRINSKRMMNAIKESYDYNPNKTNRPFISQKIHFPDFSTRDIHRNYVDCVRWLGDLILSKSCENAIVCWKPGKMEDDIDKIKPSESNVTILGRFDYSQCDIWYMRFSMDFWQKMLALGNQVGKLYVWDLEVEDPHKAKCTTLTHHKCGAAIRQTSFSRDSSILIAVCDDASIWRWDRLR
T1 sequence (Q15022 whole entry partner): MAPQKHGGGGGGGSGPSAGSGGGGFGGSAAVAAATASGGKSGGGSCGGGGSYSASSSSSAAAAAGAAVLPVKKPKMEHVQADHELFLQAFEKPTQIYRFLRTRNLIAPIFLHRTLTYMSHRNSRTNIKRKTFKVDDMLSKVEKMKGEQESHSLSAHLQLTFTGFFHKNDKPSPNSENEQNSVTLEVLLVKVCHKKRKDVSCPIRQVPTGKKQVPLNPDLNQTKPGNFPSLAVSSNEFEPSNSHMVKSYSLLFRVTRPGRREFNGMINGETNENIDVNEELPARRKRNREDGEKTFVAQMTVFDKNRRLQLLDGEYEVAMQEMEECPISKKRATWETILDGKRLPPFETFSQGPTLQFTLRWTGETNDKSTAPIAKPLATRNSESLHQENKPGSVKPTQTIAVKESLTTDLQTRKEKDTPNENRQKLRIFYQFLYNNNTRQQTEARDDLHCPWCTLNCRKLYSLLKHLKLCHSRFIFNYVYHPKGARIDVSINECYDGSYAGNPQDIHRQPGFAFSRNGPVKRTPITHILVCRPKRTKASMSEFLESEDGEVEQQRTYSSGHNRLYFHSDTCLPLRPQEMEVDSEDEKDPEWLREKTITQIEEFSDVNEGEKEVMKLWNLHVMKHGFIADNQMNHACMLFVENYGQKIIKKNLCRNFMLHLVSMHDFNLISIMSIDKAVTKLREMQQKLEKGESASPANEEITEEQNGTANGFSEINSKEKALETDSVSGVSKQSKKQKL
T1 sequence (Q09028 whole entry partner): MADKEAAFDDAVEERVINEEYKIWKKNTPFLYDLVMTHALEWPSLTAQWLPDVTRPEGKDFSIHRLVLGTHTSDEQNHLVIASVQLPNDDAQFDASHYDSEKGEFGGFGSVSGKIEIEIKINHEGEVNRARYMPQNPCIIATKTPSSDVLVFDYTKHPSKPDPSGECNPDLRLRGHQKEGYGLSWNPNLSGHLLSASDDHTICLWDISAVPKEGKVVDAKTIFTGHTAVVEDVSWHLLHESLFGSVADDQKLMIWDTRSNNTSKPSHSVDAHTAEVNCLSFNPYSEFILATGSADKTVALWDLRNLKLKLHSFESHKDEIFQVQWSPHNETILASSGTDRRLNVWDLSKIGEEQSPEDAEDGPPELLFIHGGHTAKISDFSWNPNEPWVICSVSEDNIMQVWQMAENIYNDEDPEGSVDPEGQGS
T1 sequence (Q6ZN18 whole entry partner): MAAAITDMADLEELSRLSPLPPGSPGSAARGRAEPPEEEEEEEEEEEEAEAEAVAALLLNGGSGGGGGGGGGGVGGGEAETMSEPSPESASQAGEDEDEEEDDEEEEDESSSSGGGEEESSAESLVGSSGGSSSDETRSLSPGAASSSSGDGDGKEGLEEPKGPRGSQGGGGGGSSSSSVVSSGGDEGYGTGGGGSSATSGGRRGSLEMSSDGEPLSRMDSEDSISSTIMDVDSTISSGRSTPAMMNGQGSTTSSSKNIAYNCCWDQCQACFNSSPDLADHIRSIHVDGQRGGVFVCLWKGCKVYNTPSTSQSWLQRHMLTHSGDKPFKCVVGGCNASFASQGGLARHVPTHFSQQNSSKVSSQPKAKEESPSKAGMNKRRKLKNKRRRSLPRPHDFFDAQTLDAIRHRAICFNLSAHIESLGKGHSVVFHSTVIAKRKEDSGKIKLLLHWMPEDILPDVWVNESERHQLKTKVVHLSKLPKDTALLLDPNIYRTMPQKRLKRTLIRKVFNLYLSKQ
wild-type EZH2, sequence (Q15910 whole entry): as the sequence (Q15910 whole entry Y641F) above, with F641Y counted along it
wild-type EZH2, sequence (O75530 whole entry partner): as the sequence (O75530 whole entry partner) above
wild-type EZH2, sequence (Q15022 whole entry partner): as the sequence (Q15022 whole entry partner) above
wild-type EZH2, sequence (Q09028 whole entry partner): as the sequence (Q09028 whole entry partner) above
T2 sequence (Q15910 whole entry Y641N): as the sequence (Q15910 whole entry Y641F) above, with F641N counted along it
T2 sequence (O75530 whole entry partner): as the sequence (O75530 whole entry partner) above
T2 sequence (Q15022 whole entry partner): as the sequence (Q15022 whole entry partner) above
T2 sequence (Q09028 whole entry partner): as the sequence (Q09028 whole entry partner) above
T2 sequence (Q6ZN18 whole entry partner): as the sequence (Q6ZN18 whole entry partner) above

With `CCN(c1cc(-c2ccc3c(c2)CCC3N2CCOCC2)c(F)c(C(=O)NCc2c(C)cc(C)[nH]c2=O)c1C)C1CCOCC1` (stereo not shown) [Compound 11, N-((4,6-dimethyl-2-oxo-1,2-dihydropyridin-3-yl)methyl)-3-(ethyl (tetrahydro-2H-pyran-4-yl)amino)-6-fluoro-2-methyl-5-(1-morpholino-2,3-dihydro-1H-inden-5-yl)benzamide], the IC50 is 0.54 nM at Mutant EZH2 (Y641F); 2.92 nM with WSU-DLCL2 cells (setting [2]); 1.08 nM with Pfeiffer cells (setting [3]); 1.87 nM with Karpas 422 cells (setting [4]); 0.6 nM at wild-type EZH2. In data set [1], the bioavailability stood at 26.6%. The AUC in data set [1] (intravenous dosing 4 mg/kg) is 954 ng·h/mL; in data set [1] (oral dosing 20 mg/kg), 1270 ng·h/mL. Further, the half-life in data set [1] (intravenous dosing 4 mg/kg) was 1.34 h. The Cmax in data set [1] (oral dosing 20 mg/kg) amounted to 489 ng/mL.
On to `CCN(c1cc(-c2ccc(C3(C(=O)O)CCOCC3)cc2)cc(C(=O)NCc2c(C)cc(C)[nH]c2=O)c1C)C1CCOCC1` [Compound 2, 4-(3′-(((4,6-dimethyl-2-carbonyl-1,2-dihydropyridin-3-yl)methyl)carbamoyl)-5′-(ethyl(tetrahydro-2H-pyran-4-yl)amino)-4′-methyl-[1,1′-biphenyl]-4-yl)tetrahydro-2H-pyran-4-carboxylic Acid], for which the IC50 in the data set with WSU-DLCL2 cells (setting [2]) is 1.58 nM; with Karpas 422 cells (setting [4]), 1.08 nM.
As for `C=CC(=O)Nc1ccc2c(c1)CN(c1cc(C(=O)NCc3c(C)cc(C)[nH]c3=O)c(C)c(N(CC)C3CCOCC3)c1)C2` [Compound 19, 5-(5-acrylamidoisoindolin-2-yl)-N-((4,6-dimethyl-2-oxo-1,2-dihydropyridin-3-yl)methyl)-3-(ethyl(tetrahydro-2H-pyran-4-yl)amino)-2-methylbenzamide], the IC50 is 0.08 nM at Mutant EZH2 (Y641N); 7.75 nM in the data set with WSU-DLCL2 cells (setting [2]); 2.34 nM with Pfeiffer cells (setting [3]); 3.21 nM in the data set with Karpas 422 cells (setting [4]); 0.61 nM against wild-type EZH2.
With `CCN(c1cc(-c2ccc(C3(COC)CCOCC3)cc2)cc(C(=O)NCc2c(C)cc(C)[nH]c2=O)c1C)C1CCOCC1` [Compound 5, N-((4,6-dimethyl-2-carbonyl-1,2-dihydropyridin-3-yl)methyl)-5-(ethyl(tetrahydro-2H-pyran-4-yl)amino)-4′-(4-(methoxymethyl)tetrahydro-2H-pyran-4-yl)-4-methyl-[1,1′-biphenyl]-3-carboxamide], the IC50 in the data set on WSU-DLCL2 cells (setting [2]) is 5.85 nM; in the data set with Pfeiffer cells (setting [3]), 2.84 nM; in the data set on Karpas 422 cells (setting [4]) it was 3.23 nM.
The matching figures for `CCN(c1cc(-c2ccc3c(c2)CCC3N2CCOCC2)cc(C(=O)NCc2c(C)cc(C)[nH]c2=O)c1C)C1CCOC(C)C1` (stereo not shown) [Compound 14, N-((4,6-dimethyl-2-oxo-1,2-dihydropyridin-3-yl)methyl)-3-((2-methyltetrahydro-2H-pyran-4-yl)(ethyl)amino)-2-methyl-5-(1-morpholino-2,3-dihydro-1H-inden-5-yl)benzamide]: 4.15 nM, 2.89 nM and 3.76 nM.
In the case of `CCN(c1ccc2c(c1)CN(c1cc(C(=O)NCc3c(C)cc(C)[nH]c3=O)c(C)c(N(CC)C3CCOCC3)c1)C2)C1CCOCC1` [Compound 22, N-((4,6-dimethyl-2-oxo-1,2-dihydropyridin-3-yl)methyl)-3-(ethyl (tetrahydro-2H-pyran-4-yl)amino)-5-(5-(ethyl(tetrahydro-2H-pyran-4-yl)amino)isoindolin-2-yl)-2-methylbenzamide], the IC50 was 6.38 nM in the data set with WSU-DLCL2 cells (setting [2]), 1.87 nM in the data set on Pfeiffer cells (setting [3]), 3.67 nM with Karpas 422 cells (setting [4]) and 0.71 nM against wild-type EZH2.
Turning to `CCN(c1cc(-c2ccc3c(c2)CCC3N2CCOCC2)cc(C(=O)NCc2c(OC)cc(C)[nH]c2=O)c1C)C1CCOCC1` (stereo not shown) [Compound 6, 3-(ethyl(tetrahydro-2H-pyran-4-yl)amino)-N-((4-methoxy-6-methyl-2-oxo-1,2-dihydropyridin-3-yl)methyl)-2-methyl-5-(1-morpholino-2,3-dihydro-1H-inden-5-yl)benzamide], the IC50 is 5.13 nM in the data set with WSU-DLCL2 cells (setting [2]), 3.2 nM in the data set with Pfeiffer cells (setting [3]), 4.15 nM in the data set with Karpas 422 cells (setting [4]) and 0.52 nM against wild-type EZH2. Further, in data set [1], the bioavailability was found to be 33.3%. Further, the AUC is 966 ng·h/mL in data set [1] (intravenous dosing 4 mg/kg) and 1610 ng·h/mL in data set [1] (oral dosing 20 mg/kg). Moreover, the half-life in data set [1] (intravenous dosing 4 mg/kg) is 1.12 h. Also, the Cmax in data set [1] (oral dosing 20 mg/kg) amounted to 456 ng/mL.
For `CCN(c1cc(-c2ccc3c(c2)CCC3N2CCOCC2)cc(C(=O)NCc2c(C)cc(C)[nH]c2=O)c1C)C1CC(C)OC(C)C1` (stereo not shown) [Compound 13, N-((4,6-dimethyl-2-oxo-1,2-dihydropyridin-3-yl)methyl)-3-((2,6-dimethyltetrahydro-2H-pyran-4-yl)(ethyl)amino)-2-methyl-5-(1-morpholino-2,3-di hydro-1H-inden-5-yl)benzamide], the IC50 is 0.81 nM against Mutant EZH2 (Y641F); 1.28 nM in the data set with WSU-DLCL2 cells (WSUDLCL2, […]); 0.87 nM in the data set with Pfeiffer cells ([…]); 0.95 nM in the data set on Karpas 422 cells (KARPAS-422, […]); 0.95 nM against wild-type EZH2. The bioavailability in data set [1] stood at 34.5%. Besides, the AUC in data set [1] (intravenous dosing 4 mg/kg) was determined as 977 ng·h/mL; in data set [1] (oral dosing 20 mg/kg), 1690 ng·h/mL. Moreover, the half-life in data set [1] (intravenous dosing 4 mg/kg) is 1.34 h. The Cmax in data set [1] (oral dosing 20 mg/kg) was determined as 403 ng/mL.
Consider `CCN(c1cc(-c2ccc3c(c2)C(C)(C)CC3N2CCOCC2)cc(C(=O)NCc2c(C)cc(C)[nH]c2=O)c1C)C1CCOCC1` (stereo not shown) [Compound 27], for which the IC50 in the data set on WSU-DLCL2 cells (setting [2]) is 1.71 nM.
Consider `CCN(c1cc(N2Cc3ccc(N(C)C)cc3C2)cc(C(=O)NCc2c(C)cc(C)[nH]c2=O)c1C)C1CCOCC1` [Compound 17, N-((4,6-dimethyl-2-oxo-1,2-dihydropyridin-3-yl)methyl)-5-(5-(dimethylamino)isoindolin-2-yl)-3-(ethyl(tetrahydro-2H-pyran-4-yl)amino)-2-methylbenzamide], for which the IC50 is 3.71 nM in the data set on WSU-DLCL2 cells (setting [2]), 1.27 nM with Pfeiffer cells (setting [3]) and 2.6 nM with Karpas 422 cells (setting [4]).
The like results for `CCN(c1cc(N2Cc3ccc(CN4CCOCC4)cc3C2)cc(C(=O)NCc2c(C)cc(C)[nH]c2=O)c1C)C1CCOCC1` [Compound 20, N-((4,6-dimethyl-2-oxo-1,2-dihydropyridin-3-yl)methyl)-3-(ethyl (tetrahydro-2H-pyran-4-yl)amino)-2-methyl-5-((5-morpholinomethyl)isoindolin-2-yl)benzamide] were, in that order, 7.84 nM, 2.85 nM and 3.62 nM.
As to `CCN(c1cc(-c2ccc(C3(C#N)CCOCC3)cc2)c(Cl)c(C(=O)NCc2c(C)cc(C)[nH]c2=O)c1C)C1CCOCC1` [Compound 9, 2-chloro-4′-(4-cyanotetrahydro-2H-pyran-4-yl)-N-((4,6-dimethyl-2-oxo-1,2-dihydropyridin-3-yl)methyl)-5-(ethyl(tetrahydro-2H-pyran-4-yl)amino)-4-methyl-[1,1′-biphenyl]-3-formamide], the IC50 on Mutant EZH2 (Y641F) is 0.48 nM; in the data set on WSU-DLCL2 cells (setting [2]) it was 4.68 nM; in the data set with Pfeiffer cells (setting [3]), 3.47 nM; with Karpas 422 cells (setting [4]), 4.15 nM; on wild-type EZH2 it was 0.9 nM.
For the compound `CCN(c1cc(-c2ccc(C3(C#N)CCOCC3)cc2)cc(C(=O)NCc2c(C)cc(C)[nH]c2=O)c1C)C1CCOCC1` [Compound 1, 4′-(4-cyanotetrahydro-2H-pyran-4-yl)-N-((4,6-dimethyl-2-carbonyl-1,2-dihydropyridin-3-yl)methyl)-5-(ethyl(tetrahydro-2H-pyran-4-yl)amino)-4-methyl-[1,1′-biphenyl]-3-formamide], the IC50 with WSU-DLCL2 cells (WSUDLCL2, […]) was 2.87 nM; with Pfeiffer cells ([…]) it was 1.34 nM; with Karpas 422 cells (KARPAS-422, […]), 2.15 nM.
On to `CCN(c1cc(-c2ccc(C3(CO)CCOCC3)cc2)cc(C(=O)NCc2c(C)cc(C)[nH]c2=O)c1C)C1CCOCC1` [Compound 3, N-((4,6-dimethyl-2-carbonyl-1,2-dihydropyridin-3-yl)methyl)-5-(ethyl(tetrahydro-2H-pyran-4-yl)amino)-4′-(4-(hydroxymethyl)tetrahydro-2H-pyran-4-yl)-4-methyl-[1,1′-biphenyl]-3-carboxamide], for which the IC50 with WSU-DLCL2 cells (setting [2]) was 2.68 nM; in the data set with Pfeiffer cells (setting [3]), 1.67 nM; in the data set with Karpas 422 cells (setting [4]) it was 2.5 nM.
The like results for `CCN(c1cc(-c2cc(F)c3c(c2)CCC3N2CCOCC2)cc(C(=O)NCc2c(C)cc(C)[nH]c2=O)c1C)C1CCOCC1` (stereo not shown) [Compound 26] were, in that order, 9.42 nM, 5.86 nM and 6.47 nM.
